# According to patent US12076444B2, “Methods and systems for depositing active ingredients on substrates” (Purdue Research Foundation, priority 2015, dated 2024):
# Where two headings read alike, the source gives them in different places.
# Key:
# [1] = API particle size, static image analysis (Malvern Morphologi G3-ID); assay type: physicochemical; details: dry powder
# Protocol: The micronized acetaminophen particle size distribution was obtained using the Malvern Morphologi G3-ID, which employs static image analysis to determine morphology. Powder samples of 7 mm^3 were obtained using a standard scoop, transferred to the attached dispersion unit (operated with 0.1 bar pressure and 60 second dispersion cycle) and analyzed at 20× magnification.
# Particle morphology was determined in the same manner described in Example 33, but at a magnification of 5×.
# [2] = API powder bulk density, tapped density tester; assay type: physicochemical
# Protocol: In order to determine the solid volume fractions under which the mixtures of the micronized acetaminophen powder and NEOBEE® 895 would flow as a suspension, bulk density measurements were taken using the 350 Tapped Density Tester (Agilent Technologies, Santa Clara, Calif.), housed in an acoustic cabinet. The test was performed in accordance with ASTM standard D7481-09 (equivalent to USP Method 1) using a 100 mL graduated cylinder with drop height of 14±2 mm at a rate of 300 drops per minute. The mass of the powder sample was determined on a MS8001S NewClassic MF (Mettler Toledo, Switzerland) resulting in a bulk density of 0.36 g/cm^3 after 6000 taps, measured at 21.9° C. and 40% relative humidity.
# Bulk density was determined by the same procedure described in Example 32; testing was performed at 22.1° C. and 45% relative humidity.
# [3] = API particle skeletal (true) density, helium gas pycnometry; assay type: physicochemical; details: mean of four powder samples, ambient about 22° C.
# Protocol: The AccuPyc II 1340 Gas Displacement Pycnometry System (Micromeritics Instrument Corporation, Norcross, Ga.) was used to determine the skeletal density of the micronized acetaminophen powder. The AccuPyc II 1340 instrument determines the volume occupied by powder sample, and with knowledge of the sample mass (determined on a XS105 DualRange (Mettler Toledo, Switzerland)) the skeletal density is calculated; purge cycles function to clear the chamber of residual volatile species and occur prior to the measurement cycles. Helium gas was used as the measurement gas, and the following instrument specifications were used in each powder sample: 10 purges (purge fill pressure 19.5 psig), 10 cycles (cycle fill pressure 19.5 psig), pressure equilibration rate 0.0050 psig/min, 3.5 cm^3 cell volume. Performed at ambient conditions of 22° C. and 52% relative humidity, the density reported here corresponds to the mean value obtained from measurement of four powder samples. The density of micronized acetaminophen powder was determined to be 1.3285 g/cm^3.
# (§1) Skeletal density was determined by the same procedure described in Example 31; testing was performed at ambient conditions of 22° C. and 51% relative humidity. The density reported here corresponds to the mean value obtained from measurement of four powder samples; the density of semi-fine acetaminophen powder was determined to be 1.3274 g/cm^3.
# as §1, with “22.6°” for “22°”, “53%” for “51%”, “mefenamic acid” for “semi-fine acetaminophen”, “1.2706 g/cm^3” for “1.3274 g/cm^3.”
# [4] = Raman microscopy of dosage forms; assay type: physicochemical
# Protocol: After deposition of the drops onto the film, the crystal structure of the mevastatin-PEG 3350 melt formulations were analyzed with a Raman RXN1 Microprobe (Kaiser Optical Systems, MI). First the spectra of pure mevastatin and PEG 3350 solid dispersions were obtained. Mevastatin and PEG 3350 powders were heated above their melting temperatures, to 152° C. and 60° C., respectively. The melts of pure mevastatin and pure PEG 3350 were solidified at room temperature and then analyzed to obtain the spectra of pure compounds. The spectra of the melt formulation consisting of 15% mevastatin and 85% PEG 3350 were obtained by analyzing the drops of the melt formulation deposited using the dropwise additive manufacturing process.
# A Thermo Scientific DRX Raman Microscope equipped with a 532 nm laser is used to analyze the solid state form of the drug present in the melt formulations. First, the spectra of pure crystalline celecoxib and gelucire 44/14 solid dispersion are obtained. Pure celecoxib and pure gelucire 44/14 are analyzed to obtain the spectra of pure compounds. […]
# The form of celecoxib in the dosage forms is analyzed with a Raman microscope to investigate the effect of gelucire on crystallization of celecoxib within the deposits.
# [5] = 15% naproxen 85% PEG 3350 melt dosage forms
SMILES,Sauter mean diameter [1] [μm],d90 [1] [μm],Bulk density ([2]; after 6000 taps) [g/mL],Skeletal (true) density [3] [g/mL],Physical form of the drug in the dosage forms (Raman) ([4]; 15% mevastatin 85% PEG 3350 melt dosage forms),"Physical form of the drug in the dosage forms (Raman) [4, 5]",Physical form of the drug in the dosage forms (X-ray diffraction) [5],Physical form of the drug in the dosage forms (X-ray diffraction) (15% naproxen 85% Pluronic F38 melt dosage forms),Bulk density ([2]; after 8000 taps) [g/mL]
Cc1cccc(Nc2ccccc2C(=O)O)c1C [mefenamic acid],88.83,400.5,0.7423,1.2706,,,,,
CC[C@H](C)C(=O)O[C@H]1CCC=C2C=C[C@H](C)[C@H](CC[C@@H]3C[C@@H](O)CC(=O)O3)[C@H]21 [mevastatin],,,,,crystalline,,,,
"CC(=O)Nc1ccc(O)cc1 [micronized acetaminophen, acetaminophen (paracetamol)]",22.05,75.29,0.36,1.3285,,,,,
COc1ccc2cc([C@H](C)C(=O)O)ccc2c1 [naproxen],,,,,,crystalline,crystalline,crystalline,
"CC(=O)Nc1ccc(O)cc1 [semi-fine acetaminophen, acetaminophen (paracetamol)]",47.66,208.8,,1.3274,,,,,0.46
